“And” between values parts separate entries of the source, which are not always exact repeats. Identical values can stand only once. Inconclusive results and toxic doses are left out. No stated cut-off is given here; in the data, active means T/C of 150% or more; inactive means T/C below 125%.
Tested on: L1210 leukemia ip in BDF1 mice, survival T/C
Assay: NCI In Vivo Anticancer Drug Screen. Data for tumor model L1210 Leukemia (intraperitoneal) in B6D2F1 (BDF1) mice
Settings: endpoint: mean survival time, higher = longer survival
Method in brief: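 Survival endpoint. Drug-treated group vs vehicle group, expressed as T divided by C. Tumor passaged by transplantation.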

[1] = dose: 75.0 mg/kg/injection, schedule: Q01DX001 (ip), vehicle: other
[2] = dose: 100.0 mg/kg/injection, schedule: Q04DX002 (ip), vehicle: saline
[3] = dose: 200.0 mg/kg/injection, schedule: Q04DX002 (ip), vehicle: saline
[4] = dose: 400.0 mg/kg/injection, schedule: Q04DX002 (ip), vehicle: saline
[5] = dose: 100.0 mg/kg/injection, schedule: Q01DX001 (ip), vehicle: saline
[6] = dose: 200.0 mg/kg/injection, schedule: Q01DX001 (ip), vehicle: saline
[7] = dose: 400.0 mg/kg/injection, schedule: Q01DX001 (ip), vehicle: saline
[8] = dose: 100.0 mg/kg/injection, schedule: Q01DX009 (ip), vehicle: Klucel (hydroxypropylcellulose) (HPC)
[9] = dose: 100.0 mg/kg/injection, schedule: Q04DX003 (ip), vehicle: Klucel (hydroxypropylcellulose) (HPC)
[10] = dose: 200.0 mg/kg/injection, schedule: Q01DX009 (ip), vehicle: Klucel (hydroxypropylcellulose) (HPC)
[11] = dose: 200.0 mg/kg/injection, schedule: Q04DX003 (ip), vehicle: Klucel (hydroxypropylcellulose) (HPC)
[12] = dose: 400.0 mg/kg/injection, schedule: Q04DX003 (ip), vehicle: Klucel (hydroxypropylcellulose) (HPC)
[13] = dose: 100.0 mg/kg/injection, schedule: Q01DX009 (ip), vehicle: saline with Tween-80
[14] = dose: 200.0 mg/kg/injection, schedule: Q01DX009 (ip), vehicle: saline with Tween-80
[15] = dose: 100.0 mg/kg/injection, schedule: Q01DX001 (ip), vehicle: Klucel (hydroxypropylcellulose) (HPC)
[16] = dose: 200.0 mg/kg/injection, schedule: Q01DX001 (ip), vehicle: Klucel (hydroxypropylcellulose) (HPC)
[17] = dose: 400.0 mg/kg/injection, schedule: Q01DX001 (ip), vehicle: Klucel (hydroxypropylcellulose) (HPC)
[18] = dose: 100.0 mg/kg/injection, schedule: Q01DX009 (ip), vehicle: saline
[19] = dose: 100.0 mg/kg/injection, schedule: Q04DX003 (ip), vehicle: saline
[20] = dose: 200.0 mg/kg/injection, schedule: Q01DX009 (ip), vehicle: saline
[21] = dose: 200.0 mg/kg/injection, schedule: Q04DX003 (ip), vehicle: saline
[22] = dose: 400.0 mg/kg/injection, schedule: Q04DX003 (ip), vehicle: saline
[23] = dose: 50.0 mg/kg/injection, schedule: Q01DX009 (ip), vehicle: saline with Tween-80

Measured: T/C

Nc1ccc(SCCC(=O)O)cc1
inactive: [1] 96 % of control and 97 % of control | dose: 150.0 mg/kg/injection, schedule: Q01DX001 (ip), vehicle: other 105 % of control

NCNc1nc(NCN)nc(N(CN)CN)n1
inactive: dose: 100.0 mg/kg/injection, schedule: Q04DX003 (ip), vehicle: saline with Tween-80 92 % of control | dose: 200.0 mg/kg/injection, schedule: Q04DX003 (ip), vehicle: saline with Tween-80 88 % of control | dose: 400.0 mg/kg/injection, schedule: Q04DX003 (ip), vehicle: saline with Tween-80 88 % of control

CN(C)C(=O)C(c1ccccc1)[P+](C)(c1ccccc1)c1ccccc1 (stereo unspecified)
inactive: [1] 95 % of control

Cc1ccc(N2C=C(c3ccccc3)CC2=O)cc1
inactive: dose: 100.0 mg/kg/injection, schedule: Q04DX002 (ip), vehicle: saline with Tween-80 107 % of control | dose: 200.0 mg/kg/injection, schedule: Q04DX002 (ip), vehicle: saline with Tween-80 100 % of control | dose: 400.0 mg/kg/injection, schedule: Q04DX002 (ip), vehicle: saline with Tween-80 104 % of control

C[CH2][Ge]1([CH2]C)[CH2]CC2(C[CH2]1)NC(=O)N(CCCN(C)C)C2O (stereo unspecified)
inactive: [2] 96 % of control | [3] 100 % of control | [4] 88 % of control

CCOC(=O)/C=C1\CCCc2cc(C)c(C)cc21
inactive: dose: 100.0 mg/kg/injection, schedule: Q04DX003 (ip), vehicle: other 105 % of control | dose: 200.0 mg/kg/injection, schedule: Q04DX003 (ip), vehicle: other 94 % of control | dose: 400.0 mg/kg/injection, schedule: Q04DX003 (ip), vehicle: other 104 % of control

COc1ccc(/C=C\C(=O)NCCCCNC(=O)/C=C/c2ccc(OC)cc2)cc1
inactive: [5] 101 % of control | [6] 88 % of control

O=C1CCN(C2(c3ccccc3)CCCCC2)CC1
inactive: [2] 92 % of control | [3] 103 % of control | [4] 97 % of control

Nc1ccc(CCc2ccc(S(=O)(=O)F)cc2)cc1
inactive: [5] 108 % of control | [6] 103 % of control | [7] 102 % of control

COc1ccc2c(c1)C(=O)CCN2
inactive: [8] 100 % of control | [9] 102 % of control | [10] 95 % of control | [11] 104 % of control | [12] 93 % of control

CC(C)(C)S(=O)(=O)C(C)(C)C
inactive: [13] 93 % of control | [14] 90 % of control | dose: 400.0 mg/kg/injection, schedule: Q01DX009 (ip), vehicle: saline with Tween-80 88 % of control

CCOC(=O)C1CC(=O)NC(N)=N1 (stereo unspecified)
inactive: dose: 100.0 mg/kg/injection, schedule: Q01DX Z (ip), vehicle: saline 95 % of control | dose: 200.0 mg/kg/injection, schedule: Q01DX Z (ip), vehicle: saline 100 % of control

NS(=O)(=O)c1ccc(NC(=O)Nc2cccc(CNC(=O)COc3ccc(Cl)cc3C(=O)O)c2)cc1
inactive: [15] 98 % of control | [16] 91 % of control | [17] 98 % of control

COc1ccc(C(C)=O)c(O)c1OC
inactive: [5] 101 % of control | [6] 101 % of control | [7] 98 % of control

C=CCC/C(=N\NC(N)=O)c1ccccc1
inactive: dose: 75.0 mg/kg/injection, schedule: Q01DX001 (ip), vehicle: acetone 99 % of control | dose: 150.0 mg/kg/injection, schedule: Q01DX001 (ip), vehicle: acetone 91 % of control | dose: 300.0 mg/kg/injection, schedule: Q01DX001 (ip), vehicle: acetone 110 % of control

Cc1cc(C)n(/N=C/c2ccccn2)c(=O)c1C#N
inactive: dose: 75.0 mg/kg/injection, schedule: Q04DX003 (ip), vehicle: Klucel (hydroxypropylcellulose) (HPC) 94 % of control | [15] 97 % of control | dose: 150.0 mg/kg/injection, schedule: Q04DX003 (ip), vehicle: Klucel (hydroxypropylcellulose) (HPC) 97 % of control | [16] 97 % of control | dose: 300.0 mg/kg/injection, schedule: Q04DX003 (ip), vehicle: Klucel (hydroxypropylcellulose) (HPC) 100 % of control | [17] 102 % of control

CCOc1ccc(NC(=O)c2cc(C(=O)O)c(C(=O)Nc3ccc(OCC)cc3)cc2C(=O)O)cc1
inactive: dose: 100.0 mg/kg/injection, schedule: Q04DX002 (ip), vehicle: Klucel (hydroxypropylcellulose) (HPC) 109 % of control | dose: 400.0 mg/kg/injection, schedule: Q04DX002 (ip), vehicle: Klucel (hydroxypropylcellulose) (HPC) 109 % of control

COc1ccccc1C(Cc1ccc(N2C(N)=NC(N)=NC2(C)C)cc1)C(=O)Nc1ccc(S(=O)(=O)F)cc1 (stereo unspecified)
inactive: [15] 101 % of control | [16] 101 % of control | [17] 99 % of control

C/C(=N\OC(=O)Nc1ccccc1)c1ccccc1
inactive: dose: 100.0 mg/kg/injection, schedule: Q01DX001 (ip), vehicle: carboxymethylcellulose (CMC) 98 % of control | dose: 400.0 mg/kg/injection, schedule: Q01DX001 (ip), vehicle: carboxymethylcellulose (CMC) 95 % of control

CCOC(=O)CCC(C(=O)OCC)c1nc2ccccc2[nH]c1=O (stereo unspecified)
inactive: [9] 108 % of control | [11] 108 % of control | [12] 96 % of control

COC(=O)CCCCC(=O)OCC#CC#CCOC(=O)CCCCC(=O)OC
inactive: [8] 95 % of control | [9] 91 % of control | [10] 104 % of control | [11] 92 % of control | dose: 400.0 mg/kg/injection, schedule: Q01DX009 (ip), vehicle: Klucel (hydroxypropylcellulose) (HPC) 98 % of control | [12] 92 % of control

Cc1cc(=O)c(CO)n[nH]1
inactive: [18] 103 % of control | [19] 101 % of control | [20] 95 % of control | [21] 106 % of control | dose: 400.0 mg/kg/injection, schedule: Q01DX009 (ip), vehicle: saline 98 % of control | [22] 103 % of control

O=C(O)CC(O)C(F)(F)C(F)(F)C(F)(F)F (stereo unspecified)
inactive: [18] 90 % of control | [19] 100 % of control | [20] 86 % of control | [21] 97 % of control | [22] 87 % of control

CC(=O)c1ccc(N2CCNCC2)cc1
inactive: dose: 10.0 mg/kg/injection, schedule: Q01DX001 (ip), vehicle: carboxymethylcellulose (CMC) 115 % of control | dose: 20.0 mg/kg/injection, schedule: Q01DX001 (ip), vehicle: carboxymethylcellulose (CMC) 107 % of control | dose: 40.0 mg/kg/injection, schedule: Q01DX001 (ip), vehicle: carboxymethylcellulose (CMC) 109 % of control

Cc1cc(Cl)c(OC(=O)Nc2ccccc2F)cc1C
inactive: dose: 25.0 mg/kg/injection, schedule: Q01DX009 (ip), vehicle: saline with Tween-80 106 % of control | [23] 114 % of control | [13] 103 % of control and 105 % of control

O=C(/C=C/c1ccccc1)c1ccc(Cl)c(Cl)c1
inactive: [23] 101 % of control | [13] 101 % of control | [14] 97 % of control

CSC1SC(C)CC(C)S1 (stereo unspecified)
inactive: dose: 12.5 mg/kg/injection, schedule: Q04DX002 (ip), vehicle: Klucel (hydroxypropylcellulose) (HPC) 95 % of control | dose: 25.0 mg/kg/injection, schedule: Q04DX002 (ip), vehicle: Klucel (hydroxypropylcellulose) (HPC) 92 % of control | dose: 50.0 mg/kg/injection, schedule: Q04DX002 (ip), vehicle: Klucel (hydroxypropylcellulose) (HPC) 98 % of control

CN(C)c1ccc(Cc2ccc(N(C)C)nc2)cn1
inactive: [9] 110 % of control | [11] 102 % of control | [12] 100 % of control

Cc1ccc2[nH]c(=S)n(-c3ccc(C)c(Cl)c3)c(=O)c2c1
inactive: dose: 100.0 mg/kg/injection, schedule: Q01DX009 (ip), vehicle: carboxymethylcellulose (CMC) 95 % of control | dose: 100.0 mg/kg/injection, schedule: Q04DX002 (ip), vehicle: carboxymethylcellulose (CMC) 99 % of control and 89 % of control | dose: 200.0 mg/kg/injection, schedule: Q01DX009 (ip), vehicle: carboxymethylcellulose (CMC) 93 % of control and 89 % of control | dose: 200.0 mg/kg/injection, schedule: Q04DX002 (ip), vehicle: carboxymethylcellulose (CMC) 96 % of control and 99 % of control | dose: 400.0 mg/kg/injection, schedule: Q01DX009 (ip), vehicle: carboxymethylcellulose (CMC) 92 % of control and 89 % of control | dose: 400.0 mg/kg/injection, schedule: Q04DX002 (ip), vehicle: carboxymethylcellulose (CMC) 92 % of control
